In patent US12590953B2, “Methods for screening cereblon modifying compounds” (CELGENE CORPORATION, priority 2018, dated 2026):
“Also recorded” adds a separate entry of the source.

Experiments:
SALL4 mRNA = assay: qRT-PCR of SALL4 mRNA in human iPS cells; format: cell-based; settings: 20 μM thalidomide, 16 hours, normalized with GAPDH
Method: Quantitative RT-PCR analysis was performed to human iPS cells treated with DMSO or 20 μM thalidomide (THA) for 16 hours. The relative mRNA level of SALL4 and POU5F1(OCT4) was normalized with GAPDH (n=2, biological replicates).
Total RNA was extracted from human iPS cells using RNeasy Mini Kit (Qiagen) according to manufacturer's instruction, and reverse-transcribed into first-strand cDNA with random primer using SuperScript™ IV First-Strand Synthesis System (ThermoFisher). Real-time PCR was performed in triplicate using ViiA 7 Real-Time PCR System with TaqMan Gene Expression Assay probes (ThermoFisher) for SALL4 (#4351372), POU5F1(#4331182) and GAPDH (#4326317E).

[1] = target: T1, SALL4 zinc finger domains / cereblon-CRL4 (Homo sapiens, UniProt Q96SW2+Q9UJQ4, G600A); assay: In vitro ubiquitination of human SALL4 zinc fingers by human cereblon-CRL4; format: biochemical; settings: compared with wild-type ZF4; with thalidomide
T1 construct: Human cereblon-DDB1 (cereblon amino acids 40-442 and full length DDB1); The first zinc finger domain encompasses amino acid residues 405-432; ZZ-domain-6xHis-thrombin site (N, cleaved yes); made in house; host or cells: SF9 insect cells (cereblon-DDB1, Cul4A-Rbx1); E. coli BL21 (DE3) Star (MBP-zinc finger)
T1 sequence (Q96SW2 40-442): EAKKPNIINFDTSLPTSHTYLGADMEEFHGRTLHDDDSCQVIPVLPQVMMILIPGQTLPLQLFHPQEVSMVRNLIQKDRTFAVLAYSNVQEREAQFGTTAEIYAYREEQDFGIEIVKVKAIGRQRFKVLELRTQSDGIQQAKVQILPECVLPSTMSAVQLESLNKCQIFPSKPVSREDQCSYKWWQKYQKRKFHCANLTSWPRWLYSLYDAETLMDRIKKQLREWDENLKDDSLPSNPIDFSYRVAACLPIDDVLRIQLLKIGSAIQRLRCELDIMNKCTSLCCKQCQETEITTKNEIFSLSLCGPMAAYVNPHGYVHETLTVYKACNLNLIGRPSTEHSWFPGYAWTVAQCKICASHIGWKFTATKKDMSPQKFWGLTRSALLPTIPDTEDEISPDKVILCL
T1 sequence (Q9UJQ4 589-616 G600A): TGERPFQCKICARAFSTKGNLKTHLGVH
T1 sequence (Q16531 whole entry partner, the tested form may be a part): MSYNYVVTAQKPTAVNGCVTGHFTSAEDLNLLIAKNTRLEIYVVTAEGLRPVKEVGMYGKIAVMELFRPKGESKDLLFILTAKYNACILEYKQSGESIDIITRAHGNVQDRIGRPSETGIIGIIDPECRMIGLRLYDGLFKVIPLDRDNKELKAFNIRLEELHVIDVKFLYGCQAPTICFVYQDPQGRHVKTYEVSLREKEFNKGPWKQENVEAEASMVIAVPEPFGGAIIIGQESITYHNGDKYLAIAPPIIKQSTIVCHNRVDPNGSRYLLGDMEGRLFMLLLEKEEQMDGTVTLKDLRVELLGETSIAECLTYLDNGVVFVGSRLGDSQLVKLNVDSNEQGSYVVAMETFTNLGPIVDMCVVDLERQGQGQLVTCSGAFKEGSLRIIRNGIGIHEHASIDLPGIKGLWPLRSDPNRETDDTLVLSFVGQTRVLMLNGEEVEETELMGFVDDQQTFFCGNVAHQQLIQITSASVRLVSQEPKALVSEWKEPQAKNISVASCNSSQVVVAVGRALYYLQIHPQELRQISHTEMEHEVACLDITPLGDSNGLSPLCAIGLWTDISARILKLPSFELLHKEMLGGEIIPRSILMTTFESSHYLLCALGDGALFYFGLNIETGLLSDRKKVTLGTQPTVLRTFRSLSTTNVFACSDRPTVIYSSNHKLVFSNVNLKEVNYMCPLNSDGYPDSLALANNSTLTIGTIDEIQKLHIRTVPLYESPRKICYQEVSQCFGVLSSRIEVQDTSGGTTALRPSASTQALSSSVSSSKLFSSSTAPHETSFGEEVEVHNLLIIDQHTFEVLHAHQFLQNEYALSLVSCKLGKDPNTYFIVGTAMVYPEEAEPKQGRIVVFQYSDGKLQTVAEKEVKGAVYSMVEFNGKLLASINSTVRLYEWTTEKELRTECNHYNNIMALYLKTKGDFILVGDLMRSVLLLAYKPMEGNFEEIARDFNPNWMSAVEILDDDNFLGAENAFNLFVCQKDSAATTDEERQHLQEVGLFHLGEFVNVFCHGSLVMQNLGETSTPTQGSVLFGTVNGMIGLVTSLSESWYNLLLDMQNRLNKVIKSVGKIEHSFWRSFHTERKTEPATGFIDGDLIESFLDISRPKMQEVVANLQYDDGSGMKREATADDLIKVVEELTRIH
T1 sequence (Q13619 whole entry partner, the tested form may be a part): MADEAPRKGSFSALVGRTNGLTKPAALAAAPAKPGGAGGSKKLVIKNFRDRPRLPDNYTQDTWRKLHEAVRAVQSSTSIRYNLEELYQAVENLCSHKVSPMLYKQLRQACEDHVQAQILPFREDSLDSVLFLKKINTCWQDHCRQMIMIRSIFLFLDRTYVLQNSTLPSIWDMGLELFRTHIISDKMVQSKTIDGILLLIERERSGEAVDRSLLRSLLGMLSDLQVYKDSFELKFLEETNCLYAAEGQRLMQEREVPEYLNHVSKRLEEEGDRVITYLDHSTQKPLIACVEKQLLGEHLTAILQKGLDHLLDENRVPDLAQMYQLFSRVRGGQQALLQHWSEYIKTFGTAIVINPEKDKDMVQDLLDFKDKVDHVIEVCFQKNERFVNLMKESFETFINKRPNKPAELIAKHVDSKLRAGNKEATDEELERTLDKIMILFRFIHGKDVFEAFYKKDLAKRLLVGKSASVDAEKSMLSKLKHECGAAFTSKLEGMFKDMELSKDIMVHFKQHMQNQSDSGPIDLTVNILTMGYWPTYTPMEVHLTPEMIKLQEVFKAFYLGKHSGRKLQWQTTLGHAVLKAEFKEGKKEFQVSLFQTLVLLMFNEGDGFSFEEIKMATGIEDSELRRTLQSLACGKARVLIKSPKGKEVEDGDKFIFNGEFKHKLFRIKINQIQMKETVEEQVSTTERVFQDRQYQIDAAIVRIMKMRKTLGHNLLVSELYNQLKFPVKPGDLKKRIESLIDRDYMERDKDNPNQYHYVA
T1 sequence (P62877 whole entry partner, the tested form may be a part): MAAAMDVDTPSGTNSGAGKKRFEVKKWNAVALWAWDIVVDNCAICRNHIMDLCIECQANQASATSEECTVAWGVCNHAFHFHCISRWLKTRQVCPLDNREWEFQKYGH
Method: (§1) Purified E1, E2, ubiquitin, Cul4A-Rbx1, cereblon-DDB1, and GSPT1 proteins were used to reconstitute the ubiquitination of MBP-fused WT and mutant proteins in vitro. Substrate proteins purified by maltose affinity resin (NEB) were incubated at an approximate concentration of 30 uM. Ubiquitination components described briefly: Human cereblon-DDB1 (cereblon amino acids 40-442 and full length DDB1) and 6×his-DDB1 alone were co-expressed in SF9 insect cells in the presence of 50 μM zinc acetate, and purified by nickel affinity resin (Qiagen), HiTrap ANX column ion exchange (GE Healthcare), and Sephacryl 400 16/60 size exclusion chromatography (GE healthcare). Human full length Cul4A and Rbx1 were co-expressed in SF9 insect cells and purified by nickel affinity resin and Superdex 200 16/60 size exclusion chromatography. Purified recombinant human Ube1 E1 (E-305), UbcH5a E2 (E2-616), and ubiquitin (U-100H) were purchased from R&D systems. Components were mixed to final concentrations of 10 mM ATP, 1 μM Ube1, 25 μM UbcH5a, 200 μM Ub, 1 μM Cul4-Rbx1, 25 μM GSPT1, and 1 μM cereblon-DDB1, with or without 100 μM compound as indicated in ubiquitination assay buffer (20 mM HEPES pH 7.5, 150 mM NaCl, 10 mM MgCl2). After preincubation of E1, E2, ATP and ubiquitin for 30 minutes, and separate pre-incubation of MBP-substrate, CRBN-DDB1, Cul4-Rbx1, and compound for 5 minutes at room temperature, ubiquitination reactions were started by mixing the two pre-incubations. Reactions were incubated at 30 C for 2 hours before separation by SDS-PAGE followed by coomassie staining or immunoblot analysis.
(§2) SALL4 contains 7 zinc finger domains, 4 of which have a glycine at the same position as cereblon substrates Ikaros and Aiolos. In this example, four domains containing these 4 glycine-containing zinc fingers were tested for compound-dependent ubiquitination by cereblon-CRL4 in a fully purified, in vitro ubiquitination system (see FIG. 1). The first zinc finger domain encompasses amino acid residues 405-432, which has a sequence of […] (SEQ ID NO: 3). The second zinc finger domain encompasses amino acid residues 589-616, which has a sequence of […] (SEQ ID NO: 4). The third zinc finger domain encompasses amino acid residues 865-892, which has a sequence of […] (SEQ ID NO: 5). The fourth zinc finger domain encompasses amino acid residues 893-920, which has a sequence of […] (SEQ ID NO: 6). Ikaros zinc finger domain (amino acid residues 140-168) was used as a control, which has a sequence of […] (SEQ ID NO: 7).
(§3) More specifically, individual zinc finger domains of SALL4 were expressed in E. coli and purified via an MBP tag. Purified zinc fingers were then tested in an in vitro ubiquitination assay for cereblon binding and ubiquitination. Purified zinc fingers were incubated with purified cereblon-CRL4 ubiquitin ligase complex and purified ubiquitination cascade components Uba1, UbcH5a, UbcH5b, ATP, and ubiquitin.
(§4) Ikaros and Aiolos harbor this motif within a zinc finger domain. 4 of them contain a glycine at the position necessary to mediate cereblon binding (see FIG. 1B). The human version of these four individual zinc fingers were expressed and purified for testing in our in vitro cereblon-CRL4 ubiquitination assay (see FIG. 1C). […] The existence of preferred zinc finger domains is highly reminiscent of the cereblon substrates Ikaros and Aiolos, where a single zinc finger motif mediates cereblon recruitment and degradation.

[2] = target: T2, SALL4 zinc finger domains / cereblon-CRL4 (Homo sapiens, UniProt Q96SW2+Q9UJQ4); assay: as above; format: biochemical; settings: MBP-tagged zinc finger, thalidomide vs DMSO
T2 construct: Human cereblon-DDB1 (cereblon amino acids 40-442 and full length DDB1); The first zinc finger domain encompasses amino acid residues 405-432; ZZ-domain-6xHis-thrombin site (N, cleaved yes); made in house; host or cells: SF9 insect cells (cereblon-DDB1, Cul4A-Rbx1); E. coli BL21 (DE3) Star (MBP-zinc finger)
Method: as §1, §2, §3, §4

[3] = target: T3, SALL4 zinc finger domains / cereblon-CRL4 (Homo sapiens, UniProt Q96SW2+Q9UJQ4, G416A); assay: as above; format: biochemical; settings: compared with wild-type ZF2; with thalidomide
T3 construct: Human cereblon-DDB1 (cereblon amino acids 40-442 and full length DDB1); The first zinc finger domain encompasses amino acid residues 405-432; ZZ-domain-6xHis-thrombin site (N, cleaved yes); made in house; host or cells: SF9 insect cells (cereblon-DDB1, Cul4A-Rbx1); E. coli BL21 (DE3) Star (MBP-zinc finger)
T3 sequence (Q96SW2 40-442, stated change not applied): as the sequence (Q96SW2 40-442) above
T3 sequence (Q9UJQ4 405-432 G416A): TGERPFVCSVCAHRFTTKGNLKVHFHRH
T3 sequence (Q16531 whole entry partner, the tested form may be a part): as the sequence (Q16531 whole entry partner, the tested form may be a part) above
T3 sequence (Q13619 whole entry partner, the tested form may be a part): as the sequence (Q13619 whole entry partner, the tested form may be a part) above
T3 sequence (P62877 whole entry partner, the tested form may be a part): as the sequence (P62877 whole entry partner, the tested form may be a part) above
Method: as §1, §2, §3, §4

O=C1CCC(N2C(=O)c3ccccc3C2=O)C(=O)N1 (stereo not drawn) [thalidomide]
SALL4 mRNA levels (SALL4 mRNA): not reduced by thalidomide treatment (FIG. 7E), and are instead increased; also recorded: decrease in SALL4 protein levels is not due to transcriptional downregulation
Ubiquitination of G600A mutant SALL4 zinc finger 4 [1]: significantly reduced upon mutation of the glycine to alanine
Ubiquitination of SALL4 zinc finger 2 (ZF2, a.a. 410-432) by cereblon-CRL4 [2]: robustly ubiquitinated in a thalidomide-dependent manner; also recorded: efficiently ubiquitinated by cereblon-CRL4 in a thalidomide-dependent manner; also recorded: efficiently ubiquitinated by human cereblon in a thalidomide-dependent manner
Ubiquitination of SALL4 zinc finger 4 (ZF4, a.a. 594-616) by cereblon-CRL4 [2]: also ubiquitinated in the presence of thalidomide, but more weakly; also recorded: weak ubiquitination
Ubiquitination of SALL4 zinc finger domain a.a. 405-432 by cereblon-CRL4 ([2]; 100 μM compound): observed only in the presence of cereblon modifying compound; also recorded: ubiquitinated in a thalidomide-dependent manner quite strongly; also recorded: predominantly ubiquitinated by cereblon-CRL4 in a thalidomide-dependent manner
Ubiquitination of G416A mutant SALL4 zinc finger 2 [3]: significantly reduced upon mutation of the glycine to alanine; also recorded: significantly reduced ubiquitination
